According to paper doi:10.1101/2021.06.27.450110v1 (bioRxiv, 2021):
Where a SMILES comes first, the peptide text is derived from it. Bridges are numbered along the chain shown (N, C = ends).

What was measured:
[1] = tested on: Burkholderia pseudomallei strains MSHR1364, MSHR2154 and MSHR10517; conditions: 24 h
red blood cells (RBCs) = experiment: Red blood cell hemolysis assay; type: cell-based, human; conditions: for fold less hemolytic than native tachyplesin I and polyphemusin I: from RBC CC50; for lysis of RBCs: incubation with 128 µM peptide, 37 °C, 1 h
BMMs = experiment: Flow cytometry to measure peptide internalization; type: cell-based, mouse; conditions: Alexa Fluor 488-labelled peptides, 1 h
BMMs infected with EC958 = experiment: Microscopy to determine location of peptides inside infected BMMs; type: cell-based, mouse; conditions: 8 µM A488-labelled peptide, 1 h, fixed cells, confocal microscopy
EC958 WT = experiment: Co-treatment of planktonic bacteria with peptides and zinc; type: cell-based, Escherichia coli; conditions: 0.1 mM zinc
EC958ΔzntA = experiment: as above; type: cell-based, Escherichia coli; conditions: 0.1 mM zinc

| Compound | Antimicrobial activity: MIC, Burkholderia pseudomallei [1] [µM] | fold less hemolytic than native tachyplesin I and polyphemusin I (red blood cells (RBCs)) | lysis of RBCs (red blood cells (RBCs)) [%] | concentration required to internalize 50% of cells compared to tachyplesin I (BMMs) | further results |
| --- | --- | --- | --- | --- | --- |
| CC(C)[C@@H]1NC(=O)[C@H](CCCNC(=N)N)NC(=O)[C@H](Cc2ccccc2)NC(=O)[C@@H](NC(=O)[C@H](Cc2c[nH]c3ccccc23)NC(=O)[C@H](CCCNC(=N)N)NC(=O)[C@@H](N)CCCNC(=N)N)CSSC[C@@H](C(=O)N[C@@H](CCCNC(=N)N)C(N)=O)NC(=O)[C@H](CCCCN)NC(=O)[C@H](CCCNC(=N)N)NC(=O)[C@H](Cc2ccc(O)cc2)NC(=O)[C@@H]2CSSC[C@H](NC1=O)C(=O)N[C@@H](Cc1ccc(O)cc1)C(=O)N[C@@H](CCCNC(=N)N)C(=O)NCC(=O)N[C@@H](Cc1ccccc1)C(=O)N2 [Polyphemusin-I] (H-RRWCFRVCYRGFCYRKCR-NH2; disulfide 4-17, 8-13) | > 64 | – | – | – | – |
| CC(C)C[C@H](NC(=O)[C@H](CCCNC(=N)N)NC(=O)CNC(=O)CNC(=O)[C@@H](N)CCCNC(=N)N)C(=O)N[C@H]1CSSC[C@@H](C(=O)N[C@H](C(=O)NCC(=O)N[C@@H](CCCNC(=N)N)C(N)=O)C(C)C)NC(=O)[C@H](C(C)C)NC(=O)[C@@H]2CSSC[C@H](NC(=O)[C@H](Cc3ccc(O)cc3)NC1=O)C(=O)N[C@@H](CCCNC(=N)N)C(=O)N[C@@H](CCCNC(=N)N)C(=O)N[C@@H](CCCNC(=N)N)C(=O)N[C@@H](Cc1ccccc1)C(=O)N2 [Protegrin-I] | > 64 | – | – | – | – |
| CC[C@H](C)[C@@H]1NC(=O)CNC(=O)[C@H](CCCNC(=N)N)NC(=O)[C@H](Cc2ccc(O)cc2)NC(=O)[C@@H]2CSSC[C@H](NC1=O)C(=O)N[C@@H](Cc1ccc(O)cc1)C(=O)N[C@@H](CCCNC(=N)N)C(=O)N[C@@H](CCCNC(=N)N)C(=O)N[C@H](C(=O)N[C@@H](CCCNC(=N)N)C(N)=O)CSSC[C@H](NC(=O)[C@H](Cc1c[nH]c3ccccc13)NC(=O)[C@@H](N)CCCCN)C(=O)N[C@@H](Cc1ccccc1)C(=O)N[C@@H](CCCNC(=N)N)C(=O)N[C@@H](C(C)C)C(=O)N2 [Tachyplesin I] (H-KWCFRVCYRGICYRRCR-NH2; disulfide 3-16, 7-12) | > 64 | – | – | – | – |
| CC(C)[C@@H]1NC(=O)[C@H](CCCNC(=N)N)NC(=O)[C@H](Cc2ccccc2)NC(=O)[C@@H](NC(=O)[C@H](Cc2c[nH]c3ccccc23)NC(=O)[C@@H](N)CCCCN)CSSC[C@@H](C(=O)N[C@@H](CCCNC(=N)N)C(N)=O)NC(=O)[C@H](CCCNC(=N)N)NC(=O)[C@H](CCCNC(=N)N)NC(=O)[C@H](Cc2ccc(O)cc2)NC(=O)[C@@H]2CSSC[C@H](NC1=O)C(=O)N[C@@H](Cc1ccc(O)cc1)C(=O)N[C@@H](CCCNC(=N)N)C(=O)NCC(=O)N[C@@H](C)C(=O)N2 [[I11A]tachyplesin I] (H-KWCFRVCYRGACYRRCR-NH2; disulfide 3-16, 7-12) | – | at least 3 fold | < 50 | > ten-fold lower concentrations | intracellular localization in BMMs infected with EC958 (BMMs infected with EC958): locates mainly within vesicles |
| CC(C)[C@@H]1NC(=O)[C@H](CCCNC(=N)N)NC(=O)[C@H](Cc2ccccc2)NC(=O)[C@@H](NC(=O)[C@H](Cc2c[nH]c3ccccc23)NC(=O)[C@@H](N)CCCCN)CSSC[C@@H](C(=O)N[C@@H](CCCNC(=N)N)C(N)=O)NC(=O)[C@H](CCCNC(=N)N)NC(=O)[C@H](CCCNC(=N)N)NC(=O)[C@H](Cc2ccc(O)cc2)NC(=O)[C@@H]2CSSC[C@H](NC1=O)C(=O)N[C@@H](Cc1ccc(O)cc1)C(=O)N[C@@H](CCCNC(=N)N)C(=O)NCC(=O)N[C@@H](CO)C(=O)N2 [[I11S]tachyplesin I] (H-KWCFRVCYRGSCYRRCR-NH2; disulfide 3-16, 7-12) | – | at least 3 fold | < 50 | > ten-fold lower concentrations | – |
| O=S(=O)([O-])[O-].[Zn+2] [zinc, zinc sulfate] | – | – | – | – | growth of EC958 WT with zinc alone (EC958 WT): does not significantly inhibit; growth of EC958ΔzntA with zinc alone (EC958ΔzntA): does not significantly inhibit |
